This experiment concerns the target human PDHK2 (hPDHK2) (Homo sapiens (Human), UniProt Q15119). As to the kind of experiment: Inhibitory action of PDHK activity in vitro (kinase reaction, residual PDH activity measured). The experiment is classed as biochemical.
Where [1] appears, read: PDHK inhibitory activity, class symbol of IC50.
Setting [2] is: read-out: PDHK inhibitory activity IC50.

Like-named read-outs stand apart in the source and are kept apart here.

We go through 57 molecules from patent publication US8871934B2, “Fluorene compound and pharmaceutical use thereof” (Japan Tobacco Inc., priority 2008, dated 2014).

Regarding `O=C(c1cc(-c2cncnc2)c2c(c1)C(O)(C(F)(F)F)c1ccccc1-2)N1CCC1` (stereo not drawn) [compound 369], the IC50 reads like this: under setting [1], below 100 nM; under setting [2], 81 nM.

On to `O=C(c1cc(-c2cncnc2)c2c(c1)C(O)(C(F)(F)F)c1ccccc1-2)N1CCCC1` (stereo not drawn) [compound 370], for which the IC50 was 100 to 1000 nM under setting [1] and 114 nM under setting [2].

For `O=C(NCCCCO)c1cc(-c2cncnc2)c2c(c1)C(O)(C(F)(F)F)c1ccccc1-2` (stereo not drawn) [compound 371], the IC50 is, setting by setting: under setting [1], 100 to 1000 nM; under setting [2], 617 nM.

Take `CN(CCO)C(=O)c1cc(-c2cncnc2)c2c(c1)C(O)(C(F)(F)F)c1ccccc1-2` (stereo not drawn) [compound 372]: the IC50 is, setting by setting: under setting [1], 100 to 1000 nM; under setting [2], 564 nM.

`Cn1cc(-c2cc(C(=O)N3CC(O)C3)cc3c2-c2ccccc2C3(O)C(F)(F)F)cn1` (stereo not drawn) [compound 373]: the IC50 was below 100 nM under setting [1] and 49 nM under setting [2].

Consider `Cn1cc(-c2cc(C(=O)N3CC(CO)C3)cc3c2-c2ccccc2C3(O)C(F)(F)F)cn1` (stereo not drawn) [compound 374], for which the IC50 reads like this: under setting [1], below 100 nM; under setting [2], 49 nM.

With `Cn1cc(-c2cc(C(=O)N3CC(OCCO)C3)cc3c2-c2ccccc2C3(O)C(F)(F)F)cn1` (stereo not drawn) [compound 375], the IC50 by setting is: under setting [1], below 100 nM; under setting [2], 50 nM.

Regarding `Cn1cc(-c2cc(C(=O)N3CCC(O)C3)cc3c2-c2ccccc2C3(O)C(F)(F)F)cn1` (stereo not drawn) [compound 376], the IC50 is below 100 nM under setting [1] and 85 nM under setting [2].

Take `Cn1cc(-c2ccc3c(c2)C(O)(C(F)(F)F)c2ccccc2-3)cn1` (stereo not drawn) [compound 377]: the IC50 reads like this: under setting [1], 100 to 1000 nM; under setting [2], 189 nM.

For the molecule `COc1cnc2c(c1)C(O)(C(F)(F)F)c1ccccc1-2` (stereo not drawn) [compound 378], the IC50 was 100 to 1000 nM under setting [1] and 703 nM under setting [2].

On to `CC(=O)N(CCO)CCOc1ccc2c(c1)C(O)(C(F)(F)F)c1ccccc1-2` (stereo not drawn) [compound 379], for which the IC50 by setting is: under setting [1], 100 to 1000 nM; under setting [2], 351 nM.

In the case of `CC(=O)N(C)CC(C)Oc1ccc2c(c1)C(O)(C(F)(F)F)c1ccccc1-2` (stereo not drawn) [compound 380], the IC50 reads like this: under setting [1], above 1000 nM; under setting [2], 1490 nM.

For `CC(=O)N(C)C(C)COc1ccc2c(c1)C(O)(C(F)(F)F)c1ccccc1-2` (stereo not drawn) [compound 381], the IC50 reads like this: under setting [1], 100 to 1000 nM; under setting [2], 495 nM.

Take `O=C(COc1ccc2c(c1)C(O)(C(F)(F)F)c1ccccc1-2)N1CCC[C@@H]1CO` (stereo partly drawn) [compound 382]: the IC50 runs as follows: under setting [1], 100 to 1000 nM; under setting [2], 863 nM.

On to `O=C(COc1ccc2c(c1)C(O)(C(F)(F)F)c1ccccc1-2)N1CCC[C@H]1CO` (stereo partly drawn) [compound 383], for which the IC50 under setting [1] was above 1000 nM and the IC50 under setting [2] was 1220 nM.

For the molecule `O=C(O)CCCCOc1cc(Cl)c2c(c1)C(O)(C(F)(F)F)c1ccccc1-2` (stereo not drawn) [compound 384], the IC50 reads like this: under setting [1], 100 to 1000 nM; under setting [2], 219 nM.

`NC(=O)COc1cc(Cl)c2c(c1)C(O)(C(F)(F)F)c1ccccc1-2` (stereo not drawn) [compound 385]: the IC50 runs as follows: under setting [1], 100 to 1000 nM; under setting [2], 234 nM.

Turning to `CC(C)Cn1cc(-c2cccc3c2-c2ccccc2C3(O)C(F)(F)F)cn1` (stereo not drawn) [compound 386], the IC50 by setting is: under setting [1], below 100 nM; under setting [2], 89 nM.

Turning to `OCCCCCOc1cc(Cl)c2c(c1)C(O)(C(F)(F)F)c1ccccc1-2` (stereo not drawn) [compound 387], the IC50 under setting [1] is below 100 nM and the IC50 under setting [2] is 63 nM.

On to `CC(=O)N(C)CCOc1cc(Cl)c2c(c1)C(O)(C(F)(F)F)c1ccccc1-2` (stereo not drawn) [compound 388], for which the IC50 is below 100 nM under setting [1] and 63 nM under setting [2].

Take `O[C@H]1CCN(CCOc2ccc3c(c2)C(O)(C(F)(F)F)c2ccccc2-3)C1` (stereo partly drawn) [compound 389]: the IC50 under setting [1] lay in the range of 100 to 1000 nM and the IC50 under setting [2] was 822 nM.

For `O[C@@H]1CCN(CCOc2ccc3c(c2)C(O)(C(F)(F)F)c2ccccc2-3)C1` (stereo partly drawn) [compound 390], the IC50 is 100 to 1000 nM under setting [1] and 954 nM under setting [2].

As for `O=C(COc1ccc2c(c1)C(O)(C(F)(F)F)c1ccccc1-2)N1CCC1` (stereo not drawn) [compound 391], the IC50 is, setting by setting: under setting [1], 100 to 1000 nM; under setting [2], 485 nM.

Take `Cn1cc(-c2cc(C(=O)N3CCC[C@@H]3CO)cc3c2-c2ccccc2C3(O)C(F)(F)F)cn1` (stereo partly drawn) [compound 392]: the IC50 under setting [1] was 100 to 1000 nM and the IC50 under setting [2] was determined as 200 nM.

With `Cn1cc(-c2cc(C(=O)N3CCC[C@H]3CO)cc3c2-c2ccccc2C3(O)C(F)(F)F)cn1` (stereo partly drawn) [compound 393], the IC50 by setting is: under setting [1], 100 to 1000 nM; under setting [2], 176 nM.

Regarding `Cn1cc(-c2cc(C(=O)N3CCC(CO)C3)cc3c2-c2ccccc2C3(O)C(F)(F)F)cn1` (stereo not drawn) [compound 394], the IC50 is, setting by setting: under setting [1], below 100 nM; under setting [2], 58 nM.

`O=C1CCCN1CCCOc1ccc2c(c1)C(O)(C(F)(F)F)c1ccccc1-2` (stereo not drawn) [compound 395]: the IC50 runs as follows: under setting [1], 100 to 1000 nM; under setting [2], 699 nM.

As for `O=C(COc1ccc2c(c1)C(O)(C(F)(F)F)c1ccccc1-2)N1CCC(O)CC1` (stereo not drawn) [compound 396], the IC50 under setting [1] was in the range of 100 to 1000 nM and the IC50 under setting [2] was found to be 627 nM.

Turning to `O=C(COc1ccc2c(c1)C(O)(C(F)(F)F)c1ccccc1-2)N1CCC(CO)CC1` (stereo not drawn) [compound 397], the IC50 is 100 to 1000 nM under setting [1] and 424 nM under setting [2].

For the molecule `CC(=O)N(C)CCOc1cnc2c(c1)C(O)(C(F)(F)F)c1ccccc1-2` (stereo not drawn) [compound 398], the IC50 is 100 to 1000 nM under setting [1] and 119 nM under setting [2].

For the molecule `CN(CCOc1cnc2c(c1)C(O)(C(F)(F)F)c1ccccc1-2)C(=O)CO` (stereo not drawn) [compound 399], the IC50 by setting is: under setting [1], 100 to 1000 nM; under setting [2], 149 nM.

On to `O=C(COc1ccc2c(c1)C(O)(C(F)(F)F)c1ccccc1-2)N(CCO)CCO` (stereo not drawn) [compound 400], for which the IC50 was above 1000 nM under setting [1] and 7080 nM under setting [2].

Turning to `O=C1CCCCN1CCCOc1ccc2c(c1)C(O)(C(F)(F)F)c1ccccc1-2` (stereo not drawn) [compound 401], the IC50 under setting [1] lay in the range of 100 to 1000 nM and the IC50 under setting [2] was found to be 554 nM.

As to `O=C(O)Cc1ccc2c(c1)C(O)(C(F)(F)F)c1ccccc1-2` (stereo not drawn) [compound 402], the IC50 was above 1000 nM under setting [1] and above 10000 nM under setting [2].

For `NC(=O)Cc1ccc2c(c1)C(O)(C(F)(F)F)c1ccccc1-2` (stereo not drawn) [compound 403], the IC50 is above 1000 nM under setting [1] and above 10000 nM under setting [2].

For `O=C(O)CCCOc1cc(Br)c2c(c1)C(O)(C(F)(F)F)c1ccccc1-2` (stereo not drawn) [compound 404], the IC50 reads like this: under setting [1], 100 to 1000 nM; under setting [2], 195 nM.

For `OCCc1ccc2c(c1)C(O)(C(F)(F)F)c1ccccc1-2` (stereo not drawn) [compound 405], the IC50 was above 1000 nM under setting [1] and 6380 nM under setting [2].

For `OCCCCCOc1cc(-c2cncnc2)c2c(c1)C(O)(C(F)(F)F)c1ccccc1-2` (stereo not drawn) [compound 406], the IC50 is, setting by setting: under setting [1], below 100 nM; under setting [2], 25 nM.

As to `Cn1cc(-c2cc(OCCCCCO)cc3c2-c2ccccc2C3(O)C(F)(F)F)cn1` (stereo not drawn) [compound 407], the IC50 under setting [1] is below 100 nM and the IC50 under setting [2] was determined as 31 nM.

On to `CN(CCOc1cc(Cl)c2c(c1)C(O)(C(F)(F)F)c1ccccc1-2)S(C)(=O)=O` (stereo not drawn) [compound 408], for which the IC50 runs as follows: under setting [1], below 100 nM; under setting [2], 65 nM.

Take `CN(CCOc1cc(Cl)c2c(c1)C(O)(C(F)(F)F)c1ccccc1-2)C(=O)CO` (stereo not drawn) [compound 409]: the IC50 under setting [1] is below 100 nM and the IC50 under setting [2] came to 67 nM.

Consider `NC(=O)CCCOc1cc(Cl)c2c(c1)C(O)(C(F)(F)F)c1ccccc1-2` (stereo not drawn) [compound 410], for which the IC50 reads like this: under setting [1], 100 to 1000 nM; under setting [2], 154 nM.

Consider `OCCn1cc(-c2cccc3c2-c2ccccc2C3(O)C(F)(F)F)cn1` (stereo not drawn) [compound 411], for which the IC50 runs as follows: under setting [1], below 100 nM; under setting [2], 66 nM.

`Cn1cc(-c2cc(OCCN3CCCC3=O)cc3c2-c2ccccc2C3(O)C(F)(F)F)cn1` (stereo not drawn) [compound 412]: the IC50 was below 100 nM under setting [1] and 22 nM under setting [2].

Consider `CC(Oc1ccc2c(c1)C(O)(C(F)(F)F)c1ccccc1-2)C(=O)O` (stereo not drawn) [compound 413], for which the IC50 was above 1000 nM under setting [1] and 1230 nM under setting [2].

As for `Cn1cc(-c2cc(C(=O)N3CC3)cc3c2-c2ccccc2C3(O)C(F)(F)F)cn1` (stereo not drawn) [compound 414], the IC50 is below 100 nM under setting [1] and 32 nM under setting [2].

Turning to `CC(=O)NCc1ccc2c(c1)C(O)(C(F)(F)F)c1ccccc1-2` (stereo not drawn) [compound 415], the IC50 was above 1000 nM under setting [1] and 9190 nM under setting [2].

For the molecule `O=C1CCCCN1CCOc1ccc2c(c1)C(O)(C(F)(F)F)c1ccccc1-2` (stereo not drawn) [compound 416], the IC50 reads like this: under setting [1], 100 to 1000 nM; under setting [2], 104 nM.

Take `CNCc1ccc2c(c1)C(O)(C(F)(F)F)c1ccccc1-2` (stereo not drawn) [compound 417]: the IC50 (class symbol of IC50, read-out: PDHK inhibitory activity) is above 1000 nM and the IC50 under setting [2] was above 1000 nM.

Consider `CC(=O)N(C)Cc1ccc2c(c1)C(O)(C(F)(F)F)c1ccccc1-2` (stereo not drawn) [compound 418], for which the IC50 is above 1000 nM under setting [1] and 6060 nM under setting [2].

With `O=C1CCC(COc2ccc3c(c2)C(O)(C(F)(F)F)c2ccccc2-3)N1` (stereo not drawn) [compound 419], the IC50 is, setting by setting: under setting [1], 100 to 1000 nM; under setting [2], 504 nM.

`CN1C(=O)CCC1COc1ccc2c(c1)C(O)(C(F)(F)F)c1ccccc1-2` (stereo not drawn) [compound 420]: the IC50 is, setting by setting: under setting [1], 100 to 1000 nM; under setting [2], 225 nM.

Regarding `O=C1CCC(COc2ccc3c(c2)C(O)(C(F)(F)F)c2ccccc2-3)N1CCCO` (stereo not drawn) [compound 421], the IC50 is, setting by setting: under setting [1], 100 to 1000 nM; under setting [2], 233 nM.

On to `CC(=O)N(C)CCOc1cc(-c2cncnc2)c2c(c1)C(O)(C(F)(F)F)c1ccccc1-2` (stereo not drawn) [compound 422], for which the IC50 was below 100 nM under setting [1] and 23 nM under setting [2].

For the molecule `CC(=O)N(C)CCOc1cc(-c2cnn(C)c2)c2c(c1)C(O)(C(F)(F)F)c1ccccc1-2` (stereo not drawn) [compound 423], the IC50 under setting [1] was below 100 nM and the IC50 under setting [2] was 21 nM.

Regarding `CN(CCOc1cc(-c2cncnc2)c2c(c1)C(O)(C(F)(F)F)c1ccccc1-2)C(=O)CO` (stereo not drawn) [compound 424], the IC50 runs as follows: under setting [1], below 100 nM; under setting [2], 23 nM.

For the molecule `CN(CCOc1cc(-c2cnn(C)c2)c2c(c1)C(O)(C(F)(F)F)c1ccccc1-2)C(=O)CO` (stereo not drawn) [compound 425], the IC50 is below 100 nM under setting [1] and 21 nM under setting [2].
